Results on eight compounds are retold here after patent US5073559A, “2-Substituted purinone having phosphodiesterase inhibitory activity” (Smith Kline & French Laboratories, Ltd., priority 1988, dated 1991).

Test [1] concerns U46619-induced bronchoconstriction. Nature of the test: Bronchodilatation in vivo: inhibition of U46619-induced bronchoconstriction in anaesthetised guinea-pigs. More on the design: species or system guinea-pig (Dunkin Hartley). Particulars: Cavia porcellus, iv; i.v. bolus; U46619 infused i.v. at 2.5 nmol/min; range over the listed Examples; read-out: BD50 (dose of compound required to reduce the U46619-induced bronchoconstriction by 50%). As to the method:
Male guinea-pigs of the Dunkin Hartley strain (500-600 g) were anaesthetised with Sagatal (pentobarbital sodium) (60 mg/kg). Airway resistance was measured using a modification of the classical Konzett-Rossler technique (J. Pharm. Methods, 13, 309-315, 1985). U46619 (9,11-methanoepoxy-PGH2) was infused i.v. at a rate of 2.5 nmol/min, this produced a steady state of bronchoconstriction (approximately 120% increase from basal airway resistance). The compound under test was administered by i.v. bolus injection, and the subsequent peak inhibition of bronchoconstriction recorded.
The dose of compound required to reduce the U46619-induced bronchoconstriction by 50% is given as the BD50. The compounds of Examples 2, 3, 6, 11, 14 and 15 had BD50 values in the range 0.58-7.24 μmol/kg.

Test [2] relates to ovalbumen antigen challenge bronchoconstrictor response. Nature of the test: Anti-allergic activity: inhibition of ovalbumen-induced bronchoconstrictor response in sensitised guinea-pigs. Format: in vivo, guinea-pig (Duncan Hartley). Particulars: ovalbumen 1 mg/kg i.v. The protocol:
Male Duncan Hartley guinea-pigs (250-300 g) were sensitised to ovalbumen by i.p. injection of 2 ml of 50mg.ml^-1 i.p. and 0.2 ml s.c. Three weeks later they were anaesthetised with 60 mg.kg^-1 sodium pentobarbitone. The trachea was cannulated and the animal respired at a rate of 40 breaths per minute and at an initial tracheal inflation pressure of 16 mmHg. Tracheal inflation pressure was measured by a transducer connected to a side arm of the respiration circuit. The carotid artery was cannulated for the measurement of blood pressure and the signal was used to trigger an instantaneous rate meter. A jugular vein was cannulated for the administration of drug and allergen. After surgery the animals were allowed to stabilise and the drug was administered i.v. as a bolus. Following this, ovalbumen 1 mg.kg^-1 was injected i.v. as the antigen challenge either 2, 15 or 30 minutes following drug treatment and the peak bronchoconstrictor response recorded. For the control group ovalbumen only was given. One ovalbumen challenge per guinea-pig was used and n=6 for each time point. The percentage increase in tracheal inflation pressure was calculated. The following results indicating an anti-allergic activity were obtained.

For test [3], the target named is calmodulin insensitive cyclic GMP phosphodiesterase (Homo sapiens, UniProt O76074). Put plainly: Inhibition of calmodulin insensitive cyclic GMP phosphodiesterase. In kind it is biochemical. Particulars: procedure of European Patent Application No. 293063; range over the listed Examples; read-out: IC50 (concentration of inhibitor required for 50% inhibition of enzyme activity). As to the method:
The activity of the compounds of the present invention as inhibitors of a calmodulin insensitive cyclic GMP phosphodiesterase was measured using the procedure described in European Patent Application No. 293063. […] The compounds of the present invention have the advantage that the are selective in not inhibiting cyclic AMP phosphodiesterase (type III)

SMILES strings stand for the structures.

On to `O=c1[nH]c(-c2ccccc2OCC2CC2)nc2nc[nH]c12` [Example 2, 2-(2-Cyclopropylmethoxyphenyl)purin-6-one], for which the ED50 in test [1] lay in the range of 0.58 to 7.24 µmol/kg.

With `O=c1[nH]c2nc(-c3ccccc3OCC3CC3)[nH]c(=O)c2[nH]1` [Example 3, 2-(2-Cyclopropylmethoxyphenyl)purin-6,8-dione], the ED50 in test [1] lay in the range of 0.58 to 7.24 µmol/kg. The “% Inhibition of Control Bronchoconstrictor Response 30 min after drug administration” value in test [2] (dose 18.4 μmol/kg i.v.) is reported as 24%. For the compound `CCCOc1ccccc1-c1nc2nc(-c3ccccc3)[nH]c2c(=O)[nH]1` [Example 6, 2-(2-Propoxyphenyl)-8-phenylpurin-6-one], in test [1], the ED50 fell in the range of 0.58 to 7.24 µmol/kg. Besides, the IC50 in test [3] is 310 to 4800 nM. For `CCCOc1ccccc1-c1nc2nc(S)[nH]c2c(=O)[nH]1` [Example 8, 2-(2-Propoxyphenyl)-8-mercaptopurin-6-one], the IC50 in test [3] is 310 to 4800 nM. As for `CCCOc1ccccc1-c1nc2nc(SC)[nH]c2c(=O)[nH]1` [Example 9, 2-(2-Propoxyphenyl)-8-methylthiopurin-6-one], in test [3], the IC50 was in the range of 310 to 4800 nM. Regarding `CCCOc1ccc([N+](=O)[O-])cc1-c1nc2nc[nH]c2c(=O)[nH]1` [Example 11, 2-(2-Propoxy-5-nitrophenyl)purin-6-one], the ED50 in test [1] lay within 0.58 to 7.24 µmol/kg. For the compound `CCCOc1ccc(OC)cc1-c1nc2nc[nH]c2c(=O)[nH]1` [Example 14, 2-(2-Propoxy-5-methoxyphenyl)purin-6-one], the ED50 in test [1] was 0.58 to 7.24 µmol/kg.

For `CCCOc1ccc(Cl)cc1-c1nc2nc[nH]c2c(=O)[nH]1` [Example 15, 2-(2-Propoxy-5-chlorophenyl)purin-6-one], the ED50 in test [1] is 0.58 to 7.24 µmol/kg. The “% Inhibition of Control Bronchoconstrictor Response 30 min after drug administration” value in test [2] (dose 16.6 μmol/kg i.v.) came to 30%.
